Several values for one entry are separate records, joined by “and”; a condition that tells them apart may be missing. Equal entries are not always repeated.
Legend:
[1] = system: serotonin receptor of Fig_S10g (subtype not named); experiment: β-arrestin2 recruitment (Tango), agonist activity, panel Fig_S10g (serotonin as reference; receptor not given); type: cell-based, human
5HT1E = 5HT1E (Homo sapiens, UniProt P28566); experiment: β-arrestin2 recruitment (Tango); type: cell-based; conditions: Fig_S10i
DRD3 = DRD3 (Homo sapiens, UniProt P35462); experiment: Gαi/o-mediated cAMP inhibition (GloSensor); type: cell-based; conditions: DRD3, cAMP inhibition
[2] = system: serotonin receptor of Fig_S10i (subtype not given); experiment: β-arrestin2 recruitment (Tango), agonist activity, source data Fig_S10i; type: cell-based, human; conditions: drug alone
DRD2 F1103.28A = DRD2 F1103.28A (Homo sapiens, UniProt P14416, F110A); experiment: Gαi/o-mediated cAMP inhibition (GloSensor), mutant; type: cell-based; parameters: expressed in transfected cells; host or cells: HEK293T (ATCC CRL-11268)
DRD3 F1063.28A = DRD3 F1063.28A (Homo sapiens, UniProt P35462, F106A); experiment: biochemical; type: binding
Sequence of DRD3 F1063.28A (P35462 whole entry F106A): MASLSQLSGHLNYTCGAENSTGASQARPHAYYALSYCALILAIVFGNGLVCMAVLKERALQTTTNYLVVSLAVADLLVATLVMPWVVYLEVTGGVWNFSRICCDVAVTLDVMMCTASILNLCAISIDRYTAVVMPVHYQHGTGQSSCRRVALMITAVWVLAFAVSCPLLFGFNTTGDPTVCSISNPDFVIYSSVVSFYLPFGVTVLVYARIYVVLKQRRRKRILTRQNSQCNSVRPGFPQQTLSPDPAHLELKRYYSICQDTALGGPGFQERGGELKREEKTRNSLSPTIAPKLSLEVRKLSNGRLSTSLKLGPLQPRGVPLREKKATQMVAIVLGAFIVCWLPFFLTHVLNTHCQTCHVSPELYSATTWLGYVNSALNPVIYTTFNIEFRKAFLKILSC

Sequence of 5HT1E (P28566 whole entry): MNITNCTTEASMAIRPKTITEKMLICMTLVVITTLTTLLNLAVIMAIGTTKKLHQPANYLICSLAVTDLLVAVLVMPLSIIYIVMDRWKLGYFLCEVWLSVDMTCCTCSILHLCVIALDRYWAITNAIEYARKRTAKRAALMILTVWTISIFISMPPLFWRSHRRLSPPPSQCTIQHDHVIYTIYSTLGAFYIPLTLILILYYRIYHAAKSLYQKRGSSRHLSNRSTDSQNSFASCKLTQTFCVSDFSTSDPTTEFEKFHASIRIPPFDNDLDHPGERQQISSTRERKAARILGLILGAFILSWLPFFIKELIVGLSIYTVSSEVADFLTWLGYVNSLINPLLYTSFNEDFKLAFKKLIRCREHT
Sequence of DRD3 (P35462 whole entry): as the sequence (P35462 whole entry F106A) above, with A106F counted along it
Sequence of DRD2 F1103.28A (P14416 whole entry F110A): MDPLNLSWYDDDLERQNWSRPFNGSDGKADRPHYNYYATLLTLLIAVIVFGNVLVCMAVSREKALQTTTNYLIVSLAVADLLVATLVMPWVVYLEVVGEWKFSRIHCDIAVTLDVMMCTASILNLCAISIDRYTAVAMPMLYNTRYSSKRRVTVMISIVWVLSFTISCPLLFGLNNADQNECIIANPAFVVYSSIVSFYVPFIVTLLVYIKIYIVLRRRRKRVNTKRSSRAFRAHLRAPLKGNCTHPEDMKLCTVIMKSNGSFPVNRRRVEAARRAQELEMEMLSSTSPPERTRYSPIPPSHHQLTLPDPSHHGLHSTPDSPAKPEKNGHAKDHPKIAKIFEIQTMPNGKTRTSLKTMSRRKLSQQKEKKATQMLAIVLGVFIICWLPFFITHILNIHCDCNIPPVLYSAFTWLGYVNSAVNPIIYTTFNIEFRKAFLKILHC

CCOc1cccc2cc([C@H](C)NCC3(O)CCCCC3)oc12 [O4SE6]
response, single replicate of concentration-response curve ([1]; Log[Drug] -8, drug alone): -6.944 and -3.717 and -3.146 and 13.9874 and -6.035 and -6.807 and 15.6877 and -18.2271 and -10.0032 | response, single replicate of concentration-response curve ([1]; Log[Drug] -8.52, drug alone): -4.818 and -1.578 and 1.598 and 2.984 and 0.747 and -7.738 and -15.1053 and -13.4017 and -9.68 | response, single replicate of concentration-response curve ([1]; Log[Drug] -9, drug alone): -4.766 and 4.75 and -7.577 and 4.415 and 0.09191 and 14.1047 and 1.581 and -6.014 and 1.453 | response, single replicate of concentration-response curve ([1]; Log[Drug] -9.52, drug alone): -5.307 and -4.4569 and -8.217 and -4.562 and -1.4705 and 8.897 and -2.656 and -20.9208 and -10.1255 | response, single replicate of concentration-response curve ([1]; Log[Drug] -10, drug alone): -5.416 and -3.999 and 8.581 and -6.089 and 12.3409 and -9.7675 and -12.7406 and -13.5007 and -15.0762 | response, single replicate of concentration-response curve ([1]; Log[Drug] -10.52, drug alone): -6.121 and -0.8987 and -0.5671 and -2.839 and 2.161 and 0.6785 and -9.456 and -4.939 and -9.345 | response, single replicate of concentration-response curve ([1]; Log[Drug] -11, drug alone): -4.41 and -4.674 and 2.4299 and -4.435 and -1.821 and -1.439 and -6.281 and -6.238 and -10.7545 | response, single replicate of concentration-response curve ([1]; Log[Drug] -11.52, drug alone): -9.9476 and -4.984 and -8.874 and -7.243 and 10.0217 and 14.7168 and -21.4945 and -11.4709 and -8.23 | response, single replicate of concentration-response curve ([1]; Log[Drug] -12, drug alone): 2.568 and -7.302 and 4.735 and 18.6257 and 12.38 and 36.6159 and 18.9202 and -0.5417 and 1.31 | β-arrestin2 recruitment response, agonist mode (single replicate values) (5HT1E; Log[Drug] -5.52): 0.8358 | β-arrestin2 recruitment response, agonist mode (single replicate values) (5HT1E; Log[Drug] -6): -1.216 and -11.5535 and -10.8591 and -6.779 and -25.5686 and -12.8268 and -17.4797 and -14.3235 and -24.758 | β-arrestin2 recruitment response, agonist mode (single replicate values) (5HT1E; Log[Drug] -6.52): -5.589 and -4.67 and -2.933 and -14.8207 and -0.8192 and -17.7203 and -10.9861 and -19.449 and -21.9113 | β-arrestin2 recruitment response, agonist mode (single replicate values) (5HT1E; Log[Drug] -7): -10.5885 and -12.0267 and -4.043 and -9.048 and -20.5356 and 41.9563 and -10.9581 and -15.0865 and -7.033 | β-arrestin2 recruitment response, agonist mode (single replicate values) (5HT1E; Log[Drug] -7.52): -6.825 and 5.648 and -4.719 and -12.9295 and 12.6751 and -7.089 and -18.5156 and -18.3717 and -21.8227 | β-arrestin2 recruitment response, agonist mode (single replicate values) (5HT1E; Log[Drug] -8): -7.977 and -8.538 and -9.216 and -19.7126 and -7.765 and -29.5609 and -0.3541 and 4.202 and -14.1998 | β-arrestin2 recruitment response, agonist mode (single replicate values) (5HT1E; Log[Drug] -8.52): -8.057 and -8.967 and 2.216 and 9.159 and -4.385 and 8.583 and -6.33 and -6.852 and -26.8276 | β-arrestin2 recruitment response, agonist mode (single replicate values) (5HT1E; Log[Drug] -9): 0.8147 and -7.106 and -2.942 and -13.4536 and -20.6306 and -0.4912 and -5.667 and -8.764 and -8.801 | β-arrestin2 recruitment response, agonist mode (single replicate values) (5HT1E; Log[Drug] -9.52): -5.189 and -0.1954 and -0.3872 and -6.065 and -25.1931 and 34.39 and 6.445 and -12.4444 and -9.8607 | β-arrestin2 recruitment response, agonist mode (single replicate values) (5HT1E; Log[Drug] -10): 5.7233 and -7.338 and -6.569 and -5.352 and 52.7977 and 2.248 and -7.089 and -2.873 and 1.262 | β-arrestin2 recruitment response, agonist mode (single replicate values) (5HT1E; Log[Drug] -10.52): -5.082 and -6.296 and 10.3259 and -3.566 and -12.7533 and -11.9533 and -23.7764 and -18.6704 and -6.074 | β-arrestin2 recruitment response, agonist mode (single replicate values) (5HT1E; Log[Drug] -11): -1.572 and -7.387 and 4.824 and -17.5471 and -8.254 and 2.626 and -10.6703 and -5.6779 and -4.661 | EC50 (DRD3; agonist, read-out: EC50 ± SEM): > 10 µM | G protein agonist activity (DRD3): no detectable agonist activity | response, single replicates of the concentration-response curve ([2]; Log[Drug] -11.52): -11.574 and -4.3 and 8.5185 and 5.043 and 17.6989 and -6.28 and -5.544 and 6.734 and -5.212 | response, single replicates of the concentration-response curve ([2]; Log[Drug] -12): -1.958 and 0.9753 and 5.65 and 9.245 and 10.4038 and -4.648 and 6.652 and -2.743 and 7.282 | EC50 (DRD2 F1103.28A): > 10 µM | Ki (DRD3 F1063.28A): 1.91 µM

— paper PMC7044277 (Nature Communications, 2020)
